Laboratory results: publication PMC7667638 (Journal of Medicinal Chemistry, 2020)
Read-outs that look alike come from different tables or passages of the source.

Assays:
hNaV1.4 [1] = target: T1, hNaV1.4 (Homo sapiens, UniProt P35499); assay: cell-based; conditions: for IC50: SEM
hNaV1.7 [2] = target: T2, hNaV1.7 (Homo sapiens, UniProt Q15858); assay: cell-based; assay type: cell-based
hNaV1.7 [3] = target: T2, hNaV1.7; assay: cell-based; conditions: SEM
hNaV1.4 [4] = target: T1, hNaV1.4; assay: cell-based; assay type: cell-based
hNaV1.7 [5] = target: T2, hNaV1.7; conditions: SEM; cited from earlier work
hNaV1.4 [6] = target: T1, hNaV1.4; conditions: cited from earlier work
rNaV1.4 = conditions: read-out: IC50 (nM ± SEM), rat NaV1.4; cited from earlier work

T1 sequence (P35499 whole entry, looked up): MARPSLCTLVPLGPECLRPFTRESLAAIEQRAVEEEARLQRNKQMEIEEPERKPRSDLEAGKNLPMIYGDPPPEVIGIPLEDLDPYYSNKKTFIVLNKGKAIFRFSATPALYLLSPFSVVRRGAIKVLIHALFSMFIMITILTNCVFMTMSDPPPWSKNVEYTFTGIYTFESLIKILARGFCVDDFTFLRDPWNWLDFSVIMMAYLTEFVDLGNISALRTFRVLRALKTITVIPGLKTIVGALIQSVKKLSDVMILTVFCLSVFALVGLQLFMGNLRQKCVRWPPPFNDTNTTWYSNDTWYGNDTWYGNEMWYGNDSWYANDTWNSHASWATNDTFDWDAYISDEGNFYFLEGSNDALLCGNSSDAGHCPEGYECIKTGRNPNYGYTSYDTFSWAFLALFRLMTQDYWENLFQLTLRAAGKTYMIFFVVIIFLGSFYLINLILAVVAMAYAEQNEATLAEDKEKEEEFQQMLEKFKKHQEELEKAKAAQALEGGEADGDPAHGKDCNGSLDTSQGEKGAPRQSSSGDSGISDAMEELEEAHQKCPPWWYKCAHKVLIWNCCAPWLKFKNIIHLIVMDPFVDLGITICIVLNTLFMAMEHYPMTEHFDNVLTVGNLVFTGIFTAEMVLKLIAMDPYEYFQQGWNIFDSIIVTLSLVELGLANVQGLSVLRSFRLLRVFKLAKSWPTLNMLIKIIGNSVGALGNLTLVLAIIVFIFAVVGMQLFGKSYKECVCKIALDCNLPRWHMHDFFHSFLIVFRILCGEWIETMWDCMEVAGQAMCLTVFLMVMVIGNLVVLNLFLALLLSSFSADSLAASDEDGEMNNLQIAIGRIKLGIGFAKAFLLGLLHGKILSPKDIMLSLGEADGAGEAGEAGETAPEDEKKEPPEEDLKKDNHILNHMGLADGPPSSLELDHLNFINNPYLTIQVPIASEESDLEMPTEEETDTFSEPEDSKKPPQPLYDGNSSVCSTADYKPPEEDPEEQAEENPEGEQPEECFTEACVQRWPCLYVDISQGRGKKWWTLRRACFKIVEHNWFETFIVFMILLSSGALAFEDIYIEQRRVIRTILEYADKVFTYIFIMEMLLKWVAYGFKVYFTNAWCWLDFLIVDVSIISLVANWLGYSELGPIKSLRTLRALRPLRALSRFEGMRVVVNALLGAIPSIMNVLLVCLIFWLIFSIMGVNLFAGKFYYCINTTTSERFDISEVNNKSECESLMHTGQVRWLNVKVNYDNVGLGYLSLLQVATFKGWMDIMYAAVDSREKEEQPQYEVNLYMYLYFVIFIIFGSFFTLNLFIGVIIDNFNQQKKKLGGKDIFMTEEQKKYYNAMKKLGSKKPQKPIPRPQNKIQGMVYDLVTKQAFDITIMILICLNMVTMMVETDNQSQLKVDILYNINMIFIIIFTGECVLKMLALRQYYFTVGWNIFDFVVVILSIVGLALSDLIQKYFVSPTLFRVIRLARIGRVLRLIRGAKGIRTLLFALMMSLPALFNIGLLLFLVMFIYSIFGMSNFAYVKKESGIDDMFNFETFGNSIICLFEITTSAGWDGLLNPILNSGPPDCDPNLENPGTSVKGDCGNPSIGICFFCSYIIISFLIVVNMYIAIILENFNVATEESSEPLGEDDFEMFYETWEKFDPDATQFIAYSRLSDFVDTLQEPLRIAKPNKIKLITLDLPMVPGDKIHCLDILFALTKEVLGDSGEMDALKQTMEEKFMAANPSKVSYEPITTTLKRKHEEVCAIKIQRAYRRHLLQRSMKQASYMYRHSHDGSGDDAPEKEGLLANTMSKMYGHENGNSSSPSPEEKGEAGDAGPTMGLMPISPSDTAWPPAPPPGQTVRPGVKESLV
T2 sequence (Q15858 whole entry, looked up): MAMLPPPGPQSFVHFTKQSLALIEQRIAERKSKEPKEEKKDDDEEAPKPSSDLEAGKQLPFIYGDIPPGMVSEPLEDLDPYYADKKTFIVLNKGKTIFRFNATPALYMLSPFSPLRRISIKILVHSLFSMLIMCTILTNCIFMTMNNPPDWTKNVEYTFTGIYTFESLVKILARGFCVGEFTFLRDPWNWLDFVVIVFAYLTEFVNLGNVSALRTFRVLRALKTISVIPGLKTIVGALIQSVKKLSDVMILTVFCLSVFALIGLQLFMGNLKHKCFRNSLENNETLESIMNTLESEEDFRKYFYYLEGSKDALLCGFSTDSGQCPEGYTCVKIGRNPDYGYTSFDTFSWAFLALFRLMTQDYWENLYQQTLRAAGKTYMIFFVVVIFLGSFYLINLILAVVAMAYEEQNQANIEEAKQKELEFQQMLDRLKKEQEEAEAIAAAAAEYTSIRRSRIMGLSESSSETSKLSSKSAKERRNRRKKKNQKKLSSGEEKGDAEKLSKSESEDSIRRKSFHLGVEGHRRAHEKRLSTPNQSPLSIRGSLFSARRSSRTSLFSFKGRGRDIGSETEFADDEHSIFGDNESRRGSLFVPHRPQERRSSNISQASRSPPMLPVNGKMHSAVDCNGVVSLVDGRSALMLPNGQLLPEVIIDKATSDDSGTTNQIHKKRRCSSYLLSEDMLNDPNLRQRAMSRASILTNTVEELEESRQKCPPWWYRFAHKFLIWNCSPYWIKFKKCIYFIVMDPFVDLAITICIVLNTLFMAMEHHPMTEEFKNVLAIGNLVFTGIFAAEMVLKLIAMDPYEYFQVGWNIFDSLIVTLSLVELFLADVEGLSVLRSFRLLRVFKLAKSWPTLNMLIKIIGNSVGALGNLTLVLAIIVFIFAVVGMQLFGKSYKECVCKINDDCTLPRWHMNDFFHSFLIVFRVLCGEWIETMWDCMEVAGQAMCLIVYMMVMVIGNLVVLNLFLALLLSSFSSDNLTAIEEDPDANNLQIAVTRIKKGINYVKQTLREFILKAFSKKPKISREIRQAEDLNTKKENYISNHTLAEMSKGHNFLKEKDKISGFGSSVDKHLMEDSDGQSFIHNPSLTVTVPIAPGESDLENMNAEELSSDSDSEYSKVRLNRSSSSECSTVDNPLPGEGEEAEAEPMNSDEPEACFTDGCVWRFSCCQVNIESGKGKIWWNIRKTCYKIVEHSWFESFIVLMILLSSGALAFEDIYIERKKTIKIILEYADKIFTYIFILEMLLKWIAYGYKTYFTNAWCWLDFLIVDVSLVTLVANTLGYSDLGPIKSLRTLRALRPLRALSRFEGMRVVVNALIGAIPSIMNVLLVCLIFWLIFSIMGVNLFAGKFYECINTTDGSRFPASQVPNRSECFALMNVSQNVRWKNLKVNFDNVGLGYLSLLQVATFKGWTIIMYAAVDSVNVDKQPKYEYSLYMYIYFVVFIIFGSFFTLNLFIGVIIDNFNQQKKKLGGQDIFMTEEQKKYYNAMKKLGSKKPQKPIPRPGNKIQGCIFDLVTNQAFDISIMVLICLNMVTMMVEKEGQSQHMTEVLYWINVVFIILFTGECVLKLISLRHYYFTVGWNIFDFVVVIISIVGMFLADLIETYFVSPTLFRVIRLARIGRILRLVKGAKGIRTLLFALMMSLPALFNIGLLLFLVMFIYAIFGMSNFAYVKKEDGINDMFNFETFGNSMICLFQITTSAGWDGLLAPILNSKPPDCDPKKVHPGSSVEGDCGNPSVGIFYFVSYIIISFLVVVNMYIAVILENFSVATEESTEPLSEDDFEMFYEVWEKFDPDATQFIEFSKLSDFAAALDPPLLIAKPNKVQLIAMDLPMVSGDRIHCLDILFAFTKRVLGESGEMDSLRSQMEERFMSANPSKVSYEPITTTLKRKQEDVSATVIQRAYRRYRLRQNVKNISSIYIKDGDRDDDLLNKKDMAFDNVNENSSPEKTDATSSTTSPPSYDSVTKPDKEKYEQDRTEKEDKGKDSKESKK

With `[N-]=[N+]=NCCCC[C@H](N)C(=O)N[C@H]1CSSC[C@@H]2NC(=O)[C@H](CCCNC(=N)N)NC(=O)[C@H](CO)NC(=O)[C@H](Cc3c[nH]cn3)NC(=O)[C@H](CC(=O)O)NC(=O)[C@H](CCCNC(=N)N)NC(=O)[C@@H]3CSSC[C@H](NC1=O)C(=O)N[C@@H](CC(N)=O)C(=O)N[C@@H](CSSC[C@@H](C(N)=O)NC2=O)C(=O)N[C@@H](CO)C(=O)N[C@@H](CO)C(=O)N[C@@H](CCCCN)C(=O)N[C@@H](Cc1c[nH]c2ccccc12)C(=O)N3` [AzK-KIIIA] the “IC50 relative to 1, hNaV1.4” value (hNaV1.4 [1]) was 3.6× ↑, the IC50 (hNaV1.4 [1]) was 0.032 ± 0.01 µM and the “recovery of sodium current at end of washout, hNaV1.7” value (hNaV1.7 [2]) was 12.6 ± 1.2%. For the same compound, the koff (hNaV1.7 [2]; read-out: koff, hNaV1.7, SEM) was 0.000392 s⁻¹, the kon (hNaV1.7 [2]; read-out: kon, hNaV1.7) was 16200 M⁻¹ s⁻¹ and the IC50 (hNaV1.7 [3]) was 0.096 ± 0.041 µM. For the same compound, the “recovery of sodium current at end of washout, hNaV1.4” value (hNaV1.4 [4]) was about 40%, the koff (hNaV1.4 [4]; read-out: koff, hNaV1.4, SEM) was 0.00118 s⁻¹ and the kon (hNaV1.4 [4]; read-out: kon, hNaV1.4) was 39700 M⁻¹ s⁻¹.

With `N=C(N)NCCC[C@@H]1NC(=O)[C@H](CO)NC(=O)[C@H](Cc2c[nH]cn2)NC(=O)[C@H](CC(=O)O)NC(=O)[C@H](CCCNC(=N)N)NC(=O)[C@@H]2CSSC[C@@H]3NC(=O)[C@@H](NC(=O)[C@@H](N)CCCCn4cc(C[C@H](N)C(=O)NCCOCCOCCOCCOCCC(=O)NCCOCCOCCOCCOCCC(=O)NCCOCCOCCOCCOCCC(=O)NCCOCCOCCOCCOCCC(=O)NN)nn4)CSSC[C@H](NC1=O)C(=O)N[C@H](C(N)=O)CSSC[C@H](NC(=O)[C@H](CC(N)=O)NC3=O)C(=O)N[C@@H](CO)C(=O)N[C@@H](CO)C(=O)N[C@@H](CCCCN)C(=O)N[C@@H](Cc1c[nH]c3ccccc13)C(=O)N2` [[K-KIIIA]-[PEG80]] the “IC50 relative to 1, hNaV1.4” value (hNaV1.4 [1]) was 16.0× ↑ and the IC50 (hNaV1.4 [1]) was 0.144 ± 0.046 µM.

For `N=C(N)NCCC[C@@H]1NC(=O)[C@H](CO)NC(=O)[C@H](Cc2c[nH]cn2)NC(=O)[C@H](CC(=O)O)NC(=O)[C@H](CCCNC(=N)N)NC(=O)[C@@H]2CSSC[C@@H]3NC(=O)[C@@H](N)CSSC[C@@H](C(N)=O)NC(=O)[C@H](CSSC[C@H](NC(=O)[C@H](CC(N)=O)NC3=O)C(=O)N[C@@H](CO)C(=O)N[C@@H](CO)C(=O)N[C@@H](CCCCN)C(=O)N[C@@H](Cc3c[nH]c4ccccc34)C(=O)N2)NC1=O` [µ-KIIIA-ox-p2], the IC50 (hNaV1.7 [3]) was 0.154 ± 0.015 µM.

Work on `N=C(N)NCCC[C@@H]1NC(=O)[C@H](CO)NC(=O)[C@H](Cc2c[nH]cn2)NC(=O)[C@H](CC(=O)O)NC(=O)[C@H](CCCNC(=N)N)NC(=O)[C@@H]2CSSC[C@@H]3NC(=O)[C@@H](N)CSSC[C@H](NC1=O)C(=O)N[C@H](C(N)=O)CSSC[C@H](NC(=O)[C@H](CC(N)=O)NC3=O)C(=O)N[C@@H](CO)C(=O)N[C@@H](CO)C(=O)N[C@@H](CCCCN)C(=O)N[C@@H](Cc1c[nH]c3ccccc13)C(=O)N2` [μ-KIIIA, μ-conotoxin KIIIA] yielded an IC50 (hNaV1.7 [3]) of 0.132 ± 0.037 µM.

For “E1G, E4G, Y33W huwentoxin-IV [m3-HwTx-IV]”, the IC50 (hNaV1.7 [5]) is listed as 0.4 ± 0.1 nM, the IC50 (hNaV1.4 [6]; SEM) is listed as 369 ± 196 nM and the IC50 (hNaV1.4 [6]; read-out: IC50 (nM ± SEM), hNaV1.4) is listed as 370 nM.

For μ-theraphotoxin-Hs2a [HwTx-IV], the IC50 (rNaV1.4) is listed as 400 nM.
